Source: patent publication US7429679B2, “Sulphonic acid salt of sibutramine” (CJ Corporation, priority 2005, dated 2008)
Entries after “also recorded” stand apart in the source; their conditions may differ. Structures can show the parent of a compound that is named as a salt.

Key:
[1] = Evaluation of hygroscopicity: water content (K.F.) after exposure to humid conditions at 25° C.; assay type: physicochemical
Experimental: The sulphonic acid salts of sibutramine, prepared in Examples 1 to 5, and sibutramine hydrochloride monohydrate were exposed to humid conditions (10%, 75% and 90% RH) at 25° C. for a period of three days or one week. Then, the water content (K.F. water %) of the samples was measured.

[2] = Evaluation of light stability: exposure to fluorescence at 25° C., ICH light stability test chamber, content by HPLC; assay type: physicochemical; parameters: content (HPLC) in light stability test: reference not given here
Experimental: A light stability test was performed as follows. The sulphonic acid salts of sibutramine, prepared in Examples 1 to 5, and sibutramine hydrochloride monohydrate were exposed to fluorescence at 25° C. using a light stability test chamber suitable for the ICH guideline, for storage periods of 1, 2 and 4 weeks.

[3] = Evaluation of stability: stringent 60° C. heat treatment, content by HPLC; assay type: physicochemical; parameters: content (HPLC) upon 60° C. heat treatment: reference not given here
Experimental: The sulphonic acid salts of sibutramine, prepared in Examples 1 to 5, and sibutramine hydrochloride monohydrate were exposed to a stringent 60° C. heat treatment.
HPLC was performed under the following conditions.
Wavelength of UV detection: 225 nm
Column: octadecyl silica gel, C18 (4.6×150 mm, 5 μm)
Mobile phase: an aqueous solution of ammonium phosphate monohydride (0.05 M) (adjusted to pH 6 with phosphoric acid): acetonitrile=35:65

[4] = Evaluation of solubility in distilled water and aqueous solutions having various pH values; assay type: physicochemical
rat = conditions: oral; cited from earlier work

**Q.** Which results are given for `CC(C)CC(N(C)C)C1(c2ccc(Cl)cc2)CCC1` (stereo not drawn) [HCl monohydrate, sibutramine hydrochloride monohydrate, reference compound]?
**A.** water content (K.F. water %) ([1]; 10% relative humidity, 25° C., 1 week, hydrochloride monohydrate): 5.48%; water content (K.F. water %) ([1]; 10% relative humidity, 25° C., 3 days, hydrochloride monohydrate): 5.51%; water content (K.F. water %) ([1]; 75% relative humidity, 25° C., 1 week, hydrochloride monohydrate): 5.50%; water content (K.F. water %) ([1]; 75% relative humidity, 25° C., 3 days, hydrochloride monohydrate): 5.49%; water content (K.F. water %) ([1]; 90% relative humidity, 25° C., 1 week, hydrochloride monohydrate): 5.49%; water content (K.F. water %) ([1]; 90% relative humidity, 25° C., 3 days, hydrochloride monohydrate): 5.50%; water content (K.F. water %) ([1]; Initial, hydrochloride monohydrate): 5.50%; content (HPLC) in light stability test ([2]; Initial): 1.000; light stability (in words) ([2]; content changes analyzed by HPLC): good light stability; content (HPLC) in light stability test ([2]; fluorescence, 25° C., 1 wk, hydrochloride monohydrate): 0.999; content (HPLC) in light stability test ([2]; fluorescence, 25° C., 2 wks, hydrochloride monohydrate): 1.000; content (HPLC) in light stability test ([2]; fluorescence, 25° C., 4 wks, hydrochloride monohydrate): 0.999; content (HPLC) upon 60° C. heat treatment ([3]; 60° C., 1 wk, hydrochloride monohydrate): 0.999; content (HPLC) upon 60° C. heat treatment ([3]; 60° C., 2 wks, hydrochloride monohydrate): 0.999; content (HPLC) upon 60° C. heat treatment ([3]; 60° C., 4 wks, hydrochloride monohydrate): 0.999; change in content / impurities upon 60° C. heat treatment (in words) ([3]; 60° C., up to one month or longer): almost no change in content; content (HPLC) upon 60° C. heat treatment ([3]; Initial): 1.000

**Q.** Which results are given for `CC(C)CC(N(C)C)C1(c2ccc(Cl)cc2)CCC1` (stereo not drawn) [Tosylate, sibutramine tosylate]?
**A.** water content (K.F. water %) ([1]; 10% relative humidity, 25° C., 1 week, listed as Tosyalte): 0.07%; water content (K.F. water %) ([1]; 10% relative humidity, 25° C., 3 days, listed as Tosyalte): 0.08%; water content (K.F. water %) ([1]; 75% relative humidity, 25° C., 1 week, listed as Tosyalte): 0.08%; water content (K.F. water %) ([1]; 75% relative humidity, 25° C., 3 days, listed as Tosyalte): 0.05%; water content (K.F. water %) ([1]; 90% relative humidity, 25° C., 1 week, listed as Tosyalte): 0.07%; water content (K.F. water %) ([1]; 90% relative humidity, 25° C., 3 days, listed as Tosyalte): 0.05%; water content (K.F. water %) ([1]; Initial, listed as Tosyalte): 0.10%; change in water content under humid conditions (in words) ([1]; relative humidities of 10%, 75% and 90%, up to one week or longer): almost no change in water content; content (HPLC) in light stability test ([2]; Initial): 1.000; content (HPLC) in light stability test ([2]; fluorescence, 25° C., 1 wk): 1.000; content (HPLC) in light stability test ([2]; fluorescence, 25° C., 2 wks): 0.999; content (HPLC) in light stability test ([2]; fluorescence, 25° C., 4 wks): 0.999; solubility ([4]; DW (distilled water)): 24.32 mg/mL; solubility compared to sibutramine hydrochloride monohydrate (in words) ([4]; distilled water (DW) and buffer solutions at various pH values): slightly low solubility compared to sibutramine hydrochloride monohydrate; also recorded: slightly lower solubility than sibutramine hydrochloride monohydrate; solubility ([4]; pH 1.2): 8.36 mg/mL; solubility ([4]; pH 4.0): 7.56 mg/mL; solubility ([4]; pH 5.3): 5.53 mg/mL; solubility ([4]; pH 6.8): 21.92 mg/mL; solubility ([4]; pH 7.4): 7.69 mg/mL; content (HPLC) upon 60° C. heat treatment ([3]; 60° C., 1 wk): 0.999; content (HPLC) upon 60° C. heat treatment ([3]; 60° C., 2 wks): 1.000; content (HPLC) upon 60° C. heat treatment ([3]; 60° C., 4 wks): 0.999; content (HPLC) upon 60° C. heat treatment ([3]; Initial): 1.000

**Q.** With `O=S(=O)(O)c1ccccc1` [benzenesulfonic acid] as the compound, how does the LD50 (rat) read?
**A.** 1,157 mg/kg

**Q.** For `Cc1ccc(S(=O)(=O)O)cc1` [p-toluenesulfonic acid], which LD50 (rat) is on record?
**A.** 2,480 mg/kg
